How the values were obtained:
MV-4-11 AML xenograft [1] = experiment: s.c. MV-4-11 AML xenograft, Compound A + Compound C; type: in vivo, mice; details: Compound A 50 mg/kg; Compound C 10 mg/kg
Experimental: (§1) Tumor volume (TV) is calculated as:

MV-4-11 AML xenograft [2] = experiment: survival of MV-4-11 AML xenograft; type: in vivo, mice; details: Compound A 50 mpk, Compound C 10 mpk
MOLM-3 AML xenograft = experiment: survival of MOLM-3 AML xenograft; type: in vivo, mice; details: Compound C 10 mg/kg, Compound A 100 mg/kg
[3] = test system: MH-22A syngeneic liver cancer; experiment: subcutaneous MH-22A syngeneic liver cancer model (Example 74); type: in vivo, mice
Experimental: (§2) Body weight of animals were monitored simultaneously.
(§3) Compound A: 50 mg/kg, PO, QD, for a total of 21 days,
Lenvatinib: 10 mg/kg, PO, QD, for a total of 21 days, […]

MH-22A syngeneic tumors = experiment: MH-22A syngeneic tumors, 5-day dosing (Example 76); type: in vivo, mice
Experimental: Compound A: 50 mg/kg, PO, QD, for a total of 5 days,
Lenvatinib: 10 mg/kg, PO, QD, for a total of 5 days,
Anti-PD-1: 5 mg/kg, I.P., BIW, for a total of 5 days, […]

[4] = test system: MC38 syngeneic colon cancer; experiment: subcutaneous MC38 syngeneic colon cancer model (Example 82); type: in vivo, mice
Experimental: as §2, §3
Lenvatinib: 10 mg/kg, PO, QD, for a total of 21 days,
Anti-PD-1: 5 mg/kg, I.P., BIW, for a total of 21 days, […]

DOHH2 xenograft = experiment: subcutaneous FL DOHH2 xenograft; type: in vivo, mice
Experimental: as §1

[5] = test system: ER+ MCF-7 breast cancer xenograft; experiment: s.c. ER+ MCF-7 breast cancer xenograft (Examples 7, 11, 27, 28, 44); type: in vivo, mice; details: doses as E21
[6] = test system: ER+ MCF-7 breast cancer xenograft; experiment: ER+ MCF-7 xenograft, palbociclib plus fulvestrant (Example 8); type: in vivo, mice
Experimental: as §1

[7] = test system: ER+ BR5496 breast cancer PDX; experiment: s.c. ER+ BR5496 breast PDX (tamoxifen-resistant); design: species or system mice; details: mouse, in vivo
Experimental: as §1

[8] = test system: ER+ tamoxifen resistant MCF-7 breast cancer xenograft; experiment: ER+ tamoxifen resistant MCF-7 breast cancer xenograft; design: species or system mice; details: mouse, in vivo
Experimental: as §1

[9] = test system: primary multiple myeloma cells (CL-MM-001, CL-MM-003); experiment: cell viability CTG assay, primary multiple myeloma cells; type: cell-based; details: MM sample CL-MM-003, 48 hrs; unit assumed
Experimental: IC50 value was calculated using GraphPad Prism. […] CI<0.9 indicate a synergistic combination effect.
Methods used include cell viability CTG assay.

SKM-1 MDS xenograft = experiment: SKM-1 model of myelodysplastic syndromes (MDS); type: in vivo, mice
Experimental: Compound A: 30 mg/kg, PO, QD, for a total of 22 days,
Azacitidine: 1 mg/kg, IV, QD, for a total of 7 days,
Decitabine: 0.3 mg/kg IV, QD, for a total of 7 days, […]

MV-4-11 AML xenograft [10] = experiment: s.c. MV-4-11 AML model, Compound A + HMA; type: in vivo, mice
Experimental: Compound A: 50 mg/kg, PO, QD, from day 2-day 21 for a total of 20 days,
Azacitidine: 2 mg/kg, IV, QD, for a total of 7 days,
Decitabine: 1 mg/kg IV, QD, for a total of 7 days, […]

[11] = test system: ST-02-0103 HER2+Gastric cancer PDX; experiment: subcutaneous ST-02-0103 HER2+ gastric cancer PDX model; type: in vivo, mice
Experimental: (§4) A subcutaneous xenograft tumor model of human tumor immunodeficient mice was established by cell inoculation: tumor cells in logarithmic growth phase were collected, counted, resuspended in 1×PBS, and the cell suspension concentration was adjusted to 2.5-5×10^7/mL. The tumor cells were inoculated subcutaneously in the right side of immunodeficient mice with a 1 mL syringe (4 gauge needle), 5-10×10^6/0.2 mL/mouse.
(§5) Tumor volume (TV) is calculated as: TV=a×b^2/2, wherein a and b represent the length and width of the tumor to be measured, respectively.
(§6) The relative tumor volume (RTV) is calculated as: RTV=Vt/V1, wherein V1 is the tumor volume at the start of grouping and administration, and Vt is the tumor volume measured on the t day after administration.
(§7) Lapatinib: 100 mg/kg, PO, QD, for a total of 3 weeks,
(§8) The dosing regimen of each drug in the dosing regimen for the combination is the same as the dosing regimen for the single drug.

[12] = test system: ST-02-0077 HER2+Gastric cancer PDX; experiment: subcutaneous ST-02-0077 HER2+ gastric cancer PDX model; type: in vivo, mice
Experimental: as §4, §5, §6, §7, §8

[13] = Compound A 50 mg/kg, Lenvatinib 10 mg/kg, Anti-PD-1 5 mg/kg
[14] = Cpd A 100 mg/kg, Lapatinib 100 mg/kg

Cc1ccc(C(=O)Nc2ccc(CN3CCN(C)CC3)c(C(F)(F)F)c2)cc1C#Cc1cnc2[nH]ncc2c1 [Compound C]
RTV@ D 19 (MV-4-11 AML xenograft [1]): 3.4 ± 0.6
T/C(%)@D 19 (MV-4-11 AML xenograft [1]): 22.0%
Median survival time (MV-4-11 AML xenograft [2]): 45 days
Survival prolongation (MV-4-11 AML xenograft [2]; vs vehicle): 13
Median survival time (MOLM-3 AML xenograft): 27.5 days
Survival prolongation (MOLM-3 AML xenograft; vs vehicle): 9.5

COc1cc2nccc(Oc3ccc(NC(=O)NC4CC4)c(Cl)c3)c2cc1C(N)=O [Lenvatinib, reference compound]
RTV @ D 15 ([3]; Compound A 50 mg/kg, Lenvatinib 10 mg/kg): 12.94 ± 2.02
T/C (%) @ D 15 ([3]; doses as E217): 39.29%
RTV @ D 5 (MH-22A syngeneic tumors; [13]): 3.19 ± 0.18
T/C (%) @ D 5 (MH-22A syngeneic tumors; doses as E225): 65.07%
RTV@ D 22 [4, 13]: 9.29 ± 1.60
T/C(%)@D 22 ([4]; doses as E233): 24.59%

CC[C@H](Nc1ncnc2[nH]cnc12)c1nc2cccc(F)c2c(=O)n1-c1ccccc1 [idelalisib, reference compound]
RTV@D 21 (DOHH2 xenograft; Compound A 50 mg/kg, qd, po, idelalisib 15 mg/kg, bid): 10.7 ± 0.95
T/C(%) @211 (DOHH2 xenograft; doses as E51): 75.8%

CC(=O)c1c(C)c2cnc(Nc3ccc(N4CCNCC4)cn3)nc2n(C2CCCC2)c1=O [Palbociclib, reference compound]
RTV@D 36 [5]: 2.9 ± 0.8
T/C(%)@D 22 [5]: 39.3%
T/C(%)@D 36 [5]: 44.2%
RTV@D 36 ([6]; Compound A 100 mg/kg, Palbociclib 20 mg/kg, Fulvestrant 20 mg/kg): 3.4 ± 0.7
T/C(%)@D 36 ([6]; doses as E30): 57.1%
RTV @ D 50 [7]: 3.43 ± 0.68
T/C (%) @ D 50 [7]: 78.01%
RTV @ D 25 [8]: 4.86 ± 0.71
T/C (%) @ D 25 [8]: 83.86%

Nc1cccc2c1CN(C1CCC(=O)NC1=O)C2=O (stereo not drawn) [lenalidomide]
quantified cell viability [9]: 72.4%

Nc1ncn([C@H]2C[C@H](O)[C@@H](CO)O2)c(=O)n1 [Decitabine]
RTV@ PG-D 22 (SKM-1 MDS xenograft; Cpd A 30 mg/kg, Azacitidine 1 mg/kg, Decitabine 0.3 mg/kg): 15.7 ± 2.0
T/C(%)@PG-D 22 (SKM-1 MDS xenograft; doses as E167): 87.8%
RTV@ D 22 (MV-4-11 AML xenograft [10]; Cpd A 50 mg/kg, Azacitidine 2 mg/kg, Decitabine 1 mg/kg): 6.8 ± 1.3
T/C(%)@D 22 (MV-4-11 AML xenograft [10]; doses as E170): 52.7%
body weight (MV-4-11 AML xenograft [10]; doses as E170): slight weight loss at first, but gradually recovered

CS(=O)(=O)CCNCc1ccc(-c2ccc3ncnc(Nc4ccc(OCc5cccc(F)c5)c(Cl)c4)c3c2)o1 [Lapatinib, reference compound]
RTV@D 21 [11, 14]: 3.91 ± 1.00
T/C(%) @ D 21 ([11]; doses as E195): 64.07%
RTV@D 21 [12, 14]: 9.29 ± 0.53
T/C(%) @ D 21 ([12]; doses as E199): 80.03%
